Reference: a compilation of properties of binary mixtures (doi:10.1021/acs.jced.9b00875)

Test: xn = mol fraction of the nth substance listed
Conditions: 101 kPa

CCCC[n+]1ccn(C)c1.F[B-](F)(F)F + CNC(C)=O
x1 = 1
Conditions | speed of sound [m/s] | viscosity [mPa·s]
298.15 K | 1565.8 | 98.9
303.15 K | 1554.5 | 76.3
308.15 K | 1542.7 | 58.4
313.15 K | 1530.5 | 46.2
318.15 K | 1518 | 38.7

CNC(C)=O + CCCC[n+]1ccn(C)c1.F[B-](F)(F)F
Conditions | speed of sound [m/s] | viscosity [mPa·s]
293.15 K, x2 = 0 | 1406.2 | 5.56
293.15 K, x2 = 0.2042 | 1479.3 | 8.7
293.15 K, x2 = 0.27 | 1497.8 | 10.6
293.15 K, x2 = 0.3564 | 1517.3 | 14.28
293.15 K, x2 = 0.4992 | 1540.3 | 24.5
293.15 K, x2 = 0.5552 | 1546.9 | 30.2
293.15 K, x2 = 0.6389 | 1555.3 | 41
293.15 K, x2 = 0.714 | 1561.4 | 53.3
293.15 K, x2 = 0.8495 | 1569.8 | 82.6
293.15 K, x2 = 0.9302 | 1573.9 | 104.9
298.15 K, x2 = 0 | 1385.3 | 4.77
298.15 K, x2 = 0.1409 | 1440 | 6.18
298.15 K, x2 = 0.27 | 1480.6 | 8.7
298.15 K, x2 = 0.3564 | 1501.1 | 11.64
298.15 K, x2 = 0.4343 | 1516 | 15.46
298.15 K, x2 = 0.5552 | 1532.7 | 24.2
298.15 K, x2 = 0.6389 | 1542 | 32.6
298.15 K, x2 = 0.714 | 1548.6 | 42.1
298.15 K, x2 = 0.8495 | 1558 | 64.5
298.15 K, x2 = 0.9302 | 1562.5 | 81.6
303.15 K, x2 = 0 | 1366.3 | 4.09
303.15 K, x2 = 0.0711 | 1395.9 | 4.92
303.15 K, x2 = 0.2042 | 1444.8 | 6.38
303.15 K, x2 = 0.27 | 1464.5 | 7.32
303.15 K, x2 = 0.3564 | 1486 | 9.13
303.15 K, x2 = 0.4343 | 1501.4 | 11.57
303.15 K, x2 = 0.4992 | 1511.8 | 14.39
303.15 K, x2 = 0.5552 | 1519.2 | 17.5
303.15 K, x2 = 0.6389 | 1529.2 | 23.6
303.15 K, x2 = 0.714 | 1536.2 | 30.7
303.15 K, x2 = 0.7774 | 1541.2 | 38.1
303.15 K, x2 = 0.8495 | 1546.2 | 48.2
303.15 K, x2 = 0.9302 | 1551 | 62
308.15 K, x2 = 0.0711 | 1380.7 | 4.25
308.15 K, x2 = 0.1409 | 1408.3 | 4.86
308.15 K, x2 = 0.2042 | 1430.4 | 5.48
308.15 K, x2 = 0.27 | 1450.3 | 6.31
308.15 K, x2 = 0.3564 | 1472.3 | 7.85
308.15 K, x2 = 0.4343 | 1488.2 | 9.86
308.15 K, x2 = 0.4992 | 1498.9 | 12.11
308.15 K, x2 = 0.5552 | 1506.5 | 14.56
308.15 K, x2 = 0.6389 | 1516.8 | 19.2
308.15 K, x2 = 0.7774 | 1529.2 | 30.2
308.15 K, x2 = 0.8495 | 1534.1 | 37.8
308.15 K, x2 = 0.9302 | 1539.1 | 48
313.15 K, x2 = 0 | 1336.4 | 3.08
313.15 K, x2 = 0.0711 | 1367.7 | 3.76
313.15 K, x2 = 0.1409 | 1395.4 | 4.34
313.15 K, x2 = 0.2042 | 1417.6 | 4.86
313.15 K, x2 = 0.27 | 1437.6 | 5.5
313.15 K, x2 = 0.3564 | 1459.7 | 6.64
313.15 K, x2 = 0.4343 | 1475.8 | 8.12
313.15 K, x2 = 0.5552 | 1494.8 | 11.64
313.15 K, x2 = 0.6389 | 1505 | 15.21
313.15 K, x2 = 0.714 | 1512 | 19.4
313.15 K, x2 = 0.7774 | 1517.5 | 23.7
313.15 K, x2 = 0.8495 | 1522.3 | 29.7
313.15 K, x2 = 0.9302 | 1527 | 37.8
318.15 K, x2 = 0 | 1325.2 | 2.76
318.15 K, x2 = 0.2042 | 1406.7 | 4.13
318.15 K, x2 = 0.27 | 1426.7 | 4.62
318.15 K, x2 = 0.3564 | 1448.6 | 5.5
318.15 K, x2 = 0.4343 | 1464.7 | 6.68
318.15 K, x2 = 0.4992 | 1476 | 8.04
318.15 K, x2 = 0.5552 | 1484.1 | 9.55
318.15 K, x2 = 0.6389 | 1493.8 | 12.51
318.15 K, x2 = 0.714 | 1501 | 16
318.15 K, x2 = 0.7774 | 1506.1 | 19.7
318.15 K, x2 = 0.8495 | 1510.8 | 24.7
318.15 K, x2 = 0.9302 | 1514.9 | 31.6
